Experiments:
N2a = test: Neuroprotective activity against OGD/R induced cell injury in mouse N2a cells assessed as cell viability at 10 uM preincubated under hypoxic condition for 2 hrs and measured after 24 hrs (reference value: 28.66 to 30.22 %); format: functional; conditions: time 26 hrs, read-out: Activity
[1] = Tmax in Sprague-Dawley rat at 10 mg/kg, po measured upto 8 hrs by LC-MS/MS analysis; format: ADME, organism-based; conditions: Sprague-Dawley, in vivo, read-out: Tmax
[2] = AUC(0 to t) in Sprague-Dawley rat at 10 mg/kg, po measured upto 8 hrs by LC-MS/MS analysis; format: ADME, organism-based; conditions: in vivo
[3] = Half-life in Sprague-Dawley rat at 10 mg/kg, po measured upto 8 hrs by LC-MS/MS analysis; format: ADME, organism-based; conditions: Sprague-Dawley, in vivo
[4] = Cmax in Sprague-Dawley rat at 10 mg/kg, po measured upto 8 hrs by LC-MS/MS analysis; format: ADME, organism-based; conditions: Sprague-Dawley, in vivo, read-out: Cmax
[5] = AUC(0 to infinity) in Sprague-Dawley rat at 10 mg/kg, po measured upto 8 hrs by LC-MS/MS analysis; format: ADME, organism-based; conditions: Sprague-Dawley, in vivo

Row | Structure (SMILES) | viability at 10 µM (N2a) | Tmax [1] | AUC(0-t) at 8 h [2] | half-life [3] | Cmax [4] | AUC(0-inf) [5]
1 | CCCCC(O)c1ccc(Br)cc1-c1nnn(CCN(C)C)n1 (stereo unspecified) | 44% |  |  |  |  | 
2 | CCCCC(O)c1ccc(Br)cc1-c1nnn(CC)n1 (stereo unspecified) | 53.6% | 15 min |  |  |  | 
3 | CCCCC(O)c1ccc(F)cc1-c1nn[nH]n1 (stereo unspecified) | 35.1% | 15 min | 2670 ng·h/mL |  |  | 
4 | CCCCC(O)c1ccccc1-c1nnn(C)n1 (stereo unspecified) | 43.9% | 15 min | 39.9 ng·h/mL | 433 min | 13.1 ng/mL | 71.5 ng·h/mL
5 | CCCCC(O)c1ccccc1-c1cccs1 (stereo unspecified) | 35.4% |  |  |  |  | 
6 | CCCCCC(O)c1ccc(Br)cc1-c1nn[nH]n1 (stereo unspecified) | 38% | 15 min | 2670 ng·h/mL |  | 13600 ng/mL | 
7 | CCCCC(O)c1ccc(Cl)cc1-c1nn[nH]n1 (stereo unspecified) | 27.5% | 15 min | 2670 ng·h/mL |  |  | 
8 | CCCCC(O)c1ccccc1-c1cc[nH]n1 (stereo unspecified) | 39.5% |  |  |  |  | 

Reference: ChEMBL document CHEMBL5579827, “Discovery of orally bioavailable phenyltetrazolium derivatives for the acute treatment and the secondary prevention of ischemic stroke” (Eur J Med Chem, 2024)
